In brackets after ≈: the same amount, converted by molar mass. Like-named read-outs stand apart in the source and are kept apart here.
Key:
[1] = test system: MCF-7 breast cancer cells; test: In-vitro anticancer MTT assay; format: cell-based, human; settings: for IC90: Homo sapiens, MCF7, read-out: Cytotoxic properties (IC 90) MCF-7
Source text: (§1) The bioactivity testing was done at two stages.

PA-1 ovary cancer cells [2] = test: In-vitro anticancer MTT assay; format: cell-based, human; settings: for Cytotoxic properties (IC 90) PA-1 / IC90: MTT assay, 6 h exposure, then 48 h in fresh media, 90% inhibition of cell growth; for IC90: Homo sapiens, read-out: Cytotoxic properties (IC 90) PA-1
Source text: as §1

[3] = test system: Caco-2 colon cancer cells; test: In-vitro anticancer MTT assay; format: cell-based, human; settings: for IC90: Homo sapiens
Source text: as §1

[4] = test system: KB-403 mouth cancer cells
Description: (§2) As a part of the studies on the isolation of anticancer compounds a number of taxanes were isolated from the needles of the plant Taxus wallichiana and tested for their anti-cancer properties against six human cancer cell lines in-vitro. The bioactivity testing was done at two stages. In the initial step, MTT assay was performed from which the inhibitory concentration (IC90) the concentration (μg/mL) of the taxanes required for 90% inhibition of cell growth was deduced. […] The MTT assay cannot discriminate between growth inhibition and cell death; it is an overall measurement of cell proliferation (Woerdenbag et al., 1993; J.Nat.Prod. 56 (6): 849–856). Therefore the IC90 data obtained by the MTT assay may overestimate the cell killing activity of a compound. […] Persons skilled in the art of anti-cancer drug discovery can perform both these assays.
(§3) The following six human cancer lines were procured from the Cell Repository of the National Center for Cell Sciences (NCSS) at Pune. Their corresponding ATCC No. and the organ from which they were isolated are also mentioned in Table 1 below:
(§4) Cytotoxicity testing in vitro was done by the method of Woerdenbag et al.,1993; J.Nat.Prod. 56 (6): 849–856). 2×10^3 cells/well were incubated in the 5% CO2 incubator for 24 h to enable them to adhere properly to the 96 well polysterene microplate (Grenier, Germany). Test compounds dissolved in 100% DMSO (Merck,Germany) in at least five doses were added and left for 6 h after which the compound plus media was replaced with fresh media and the cells were incubated for another 48 h in the CO2 incubator at 37° C. […] Then, 10 μl MTT [3-(4,5-dimethylthiazol-2-yl)-2,5-diphenyltetrazolium bromide; Sigma M 2128] was added, and plates were incubated at 37° C. for 4 h. 100 μl dimethyl sulfoxide (DMSO, Merck, Germany) were added to all wells and mixed thoroughly to dissolve the dark blue crystals. After a few minutes at room temperature to ensure that all crystals were dissolved, the plates were read on a SpectraMax 190 Microplate Elisa reader (Molecular Devices Inc., USA), at 570 nm. Plates were normally read within 1 h of adding the DMSO. The experiment was done in triplicate and the inhibitory concentration (IC) values were calculated as follows: % inhibition=[1-OD (570 nm) of sample well/OD (570 nm) of control well]×100. IC90 is the concentration μg/mL required for 90% inhibition of cell growth as compared to that of untreated control.

[5] = test system: KB-403 mouth cancer cells; remark: listed apart in the source
Description: as §2
(§5) The clonogenic assay for tumor cells which determines the actual cell death was performed to determine the cytotoxic potential of test compounds. The principle of clonogenic assay is to investigate the ability of an individual cell to form a colony on a soft agar plate containing various concentrations of test compounds.
(§6) Cells not able to form colonies are considered clonogenically dead (Beekman et al 1997; J.Nat.Prod. 60(4): 325–330). The concentration of test compound resulting in […] was denoted as IC90 and was used as a parameter for cytotoxicity. The assay was performed as described previously except that the test compounds were added into the top soft agar and the cells were plated out to form colonies. Anthracycline derivative doxorubicin and microtubule depolymerization inhibitor paclitaxel (Sigma Chem. Co., St. Loius, USA) both established anticancer agents were included as standard reference drugs.

[6] = test system: MCF-7 breast cancer cells; test: Soft agar assay for colony formation (clonogenic assay); format: cell-based, human; settings: compound in top soft agar; for Cytotoxic properties (IC 90) MCF-7: colony formation on soft agar; for IC90: Homo sapiens, MCF7, colony formation on soft agar, read-out: Cytotoxic properties (IC 90) MCF-7
Source text: as §1

PA-1 ovary cancer cells [7] = test: as above; format: cell-based, human; settings: colony formation on soft agar, compound in top soft agar; for IC90: Homo sapiens, read-out: Cytotoxic properties (IC 90) PA-1
Source text: as §1

[8] = test system: Caco-2 colon cancer cells; test: as above; format: cell-based, human; settings: compound in top soft agar; for Cytotoxic properties (IC 90) Caco-2: colony formation on soft agar; for IC90: Homo sapiens, Caco-2, colony formation on soft agar, read-out: Cytotoxic properties (IC 90) Caco-2
Source text: as §1

[9] = test system: COLO-320DM colon cancer cells; test: In-vitro anticancer MTT assay; format: cell-based, human; settings: 6 h exposure, then 48 h in fresh media, 90% inhibition of cell growth; for IC90: Homo sapiens, COLO 320DM, read-out: Cytotoxic properties (IC 90) COLO-320 DM
Source text: as §1

[10] = test system: WRL-68 liver cancer cells; test: In-vitro anticancer MTT assay; settings: for IC90: Homo sapiens, WRL68, read-out: Cytotoxic properties (IC 90) WRL-68
Description: as §2, §3, §4

[11] = test system: WRL-68 liver cancer cells; test: Soft agar assay for colony formation (clonogenic assay); settings: for IC90: Homo sapiens, WRL68, read-out: Cytotoxic properties (IC 90) WRL-68
Description: as §2, §5, §6

[12] = test system: COLO-320DM colon cancer cells; test: as above; format: cell-based, human; settings: colony formation on soft agar, compound in top soft agar; for IC90: Homo sapiens, COLO 320DM, read-out: Cytotoxic properties (IC 90) COLO-320 DM
Source text: as §1

[13] = MTT assay, 6 h exposure, then 48 h in fresh media, 90% inhibition of cell growth
[14] = clonogenic assay, colony formation on soft agar, compound in top soft agar
[15] = Caco-2, MTT assay, 6 h exposure, then 48 h in fresh media, 90% inhibition of cell growth, read-out: Cytotoxic properties (IC 90) Caco-2

Compound | Cytotoxic properties (IC 90) Caco-2 [3, 13] | Cytotoxic properties (IC 90) KB-403 [4, 13] | Cytotoxic properties (IC 90) KB-403 [5, 14] | Cytotoxic properties (IC 90) Caco-2 [8] | IC90 [9] | IC90 [1, 13] | IC90 (PA-1 ovary cancer cells [2]) | IC90 [10] | IC90 [12] | IC90 [6] | IC90 (PA-1 ovary cancer cells [7]) | IC90 [8] | IC90 [11] | Cytotoxic properties (IC 90) KB-403 [4] | other results
2′-Deacetoxy austrospicatin | 1.0 µg/mL | 4.5 µg/mL | 0.44 µg/mL | 3.16 µg/mL |  |  |  |  |  |  |  |  |  |  | Cytotoxic properties (IC 90) MCF-7 [1, 13]: 3.5 µg/mL; Cytotoxic properties (IC 90) PA-1 (PA-1 ovary cancer cells [2]): 4.0 µg/mL; Cytotoxic properties (IC 90) MCF-7 [6]: 5.63 µg/mL; Cytotoxic properties (IC 90) PA-1 (PA-1 ovary cancer cells [7]): 6.3 µg/mL
C=C1[C@H]2C[C@@H]3C[C@H](OC(C)=O)C(C)=C([C@@H](OC(C)=O)[C@H](OC(C)=O)[C@]2(C)[C@@H](OC(C)=O)C[C@@H]1O)C3(C)C [2-deacetoxy decinnamoyl taxinine J] | 6.4 µg/mL | 0.01 µg/mL | 0.11 µg/mL | 31.82 µg/mL |  |  |  |  |  |  |  |  |  |  | Cytotoxic properties (IC 90) COLO-320 DM [9]: >10.0 µg/mL; Cytotoxic properties (IC 90) PA-1 (PA-1 ovary cancer cells [2]): 10.0 µg/mL; Cytotoxic properties (IC 90) WRL-68 [10, 13]: 0.5 µg/mL; Cytotoxic properties (IC 90) PA-1 (PA-1 ovary cancer cells [7]): 15.84 µg/mL; Cytotoxic properties (IC 90) WRL-68 [11, 14]: 12.58 µg/mL
C=C1[C@@H](OC(=O)/C=C/c2ccccc2)C[C@H](OC(C)=O)[C@]2(C)[C@@H]1C[C@@H]1C[C@H](OC(C)=O)C(C)=C([C@@H](OC(C)=O)[C@@H]2OC(C)=O)C1(C)C [2-deacetoxy taxinine J] | 0.009 µg/mL | 3.5 µg/mL | 28.18 µg/mL | 0.25 µg/mL |  |  |  |  |  |  |  |  |  |  | Cytotoxic properties (IC 90) COLO-320 DM [9]: 1.0 µg/mL; Cytotoxic properties (IC 90) MCF-7 [1, 13]: 6.5 µg/mL; Cytotoxic properties (IC 90) COLO-320 DM [12]: 10.0 µg/mL; Cytotoxic properties (IC 90) MCF-7 [6]: 7.94 µg/mL
CC(=O)O[C@H]1C[C@H]2OC[C@@]2(OC(C)=O)[C@H]2[C@H](OC(C)=O)[C@]3(C(C)(C)O)C[C@H](O)C(C)=C3[C@@H](O)[C@H](OC(C)=O)[C@]12C [10,13,deacetyl abeobaccatin IV] |  | >10.0 µg/mL |  |  |  |  |  |  |  |  |  |  |  |  | Cytotoxic properties (IC 90) MCF-7 [1]: >10.0 µg/mL
C=C1C2C[C@]3(C(C)(C)O)CC(O)C(C)=C3[C@@H](OC(=O)c3ccccc3)[C@H](OC(C)=O)[C@]2(C)[C@@H](OC(C)=O)C[C@@H]1O (some centres unmarked) [Brevifoliol, brevifoliol] |  | 0.035 µg/mL | 0.398 µg/mL |  | 0.1 µg/mL (≈ 0.18 µM) | 0.004 µg/mL (≈ 0.00719 µM) | 6 µg/mL (≈ 10.8 µM) | > 10 µg/mL | 1 µg/mL (≈ 1.8 µM) | 1.99 µg/mL (≈ 3.57 µM) | 7.94 µg/mL (≈ 14.3 µM) | 0.31 µg/mL (≈ 0.557 µM) | 15.8 µg/mL (≈ 28.5 µM) |  | activity against MCF-7 cancer cells, in words ([1]; summary of the bioassay data): highly inhibitory; activity against PA-1 cancer cells, in words (PA-1 ovary cancer cells [2]; summary of the bioassay data): highly inhibitory; IC90 ([3]; Caco-2, read-out: Cytotoxic properties (IC 90) Caco-2): 0.85 µg/mL (≈ 1.53 µM); activity against Caco-2 cancer cells, in words ([3]; summary of the bioassay data): highly inhibitory; activity against KB-403 cancer cells, in words ([4]; summary of the bioassay data): highly inhibitory; activity against WRL-68 liver cancer cells, in words ([10]; summary of Table 2): active against all cancer cell lines except liver cancer (WRL-68)
COc1cccc2c1C(=O)c1c(O)c3c(c(O)c1C2=O)C[C@@](O)(C(=O)CO)C[C@@H]3O[C@H]1C[C@H](N)[C@H](O)[C@H](C)O1 [Doxorubicin (Std), doxorubicin, reference compound] |  |  |  |  | 0.08 µg/mL (≈ 0.147 µM) | 0.01 µg/mL (≈ 0.0184 µM) | 0.5 µg/mL (≈ 0.92 µM) | 1 µg/mL (≈ 1.84 µM) | 0.1 µg/mL (≈ 0.184 µM) | 0.8 µg/mL (≈ 1.47 µM) | 10 µg/mL (≈ 18.4 µM) | 0.079 µg/mL (≈ 0.145 µM) | 3.98 µg/mL (≈ 7.32 µM) | 0.06 µg/mL | IC90 [3, 15]: 0.052 µg/mL (≈ 0.0957 µM)
CC(=O)O[C@H]1C(=O)[C@@]2(C)[C@H]([C@H](OC(=O)c3ccccc3)[C@]3(O)C[C@H](OC(=O)[C@H](O)[C@@H](NC(=O)c4ccccc4)c4ccccc4)C(C)=C1C3(C)C)[C@]1(OC(C)=O)CO[C@@H]1C[C@@H]2O [Taxol (Std), taxol, reference compound] |  |  |  |  | 0.01 µg/mL (≈ 0.0117 µM) | 0.85 µg/mL (≈ 0.995 µM) | 0.9 µg/mL (≈ 1.05 µM) | 2.5 µg/mL (≈ 2.93 µM) | 0.8 µg/mL (≈ 0.937 µM) | 1.99 µg/mL (≈ 2.33 µM) | 1.47 µg/mL (≈ 1.72 µM) | 1.99 µg/mL (≈ 2.33 µM) | 6.3 µg/mL (≈ 7.38 µM) | 0.047 µg/mL | IC90 [3, 15]: 0.065 µg/mL (≈ 0.0761 µM); Cytotoxic properties (IC 90) KB-403 [5]: 7.94 µg/mL
Acetoxy brevifoliol |  |  |  |  |  |  |  |  |  |  |  |  |  | 10.0 µg/mL | Cytotoxic properties (IC 90) WRL-68 [10]: 5.0 µg/mL; Cytotoxic properties (IC 90) KB-403 [5]: 1.0 µg/mL; Cytotoxic properties (IC 90) WRL-68 [11]: 7.0 µg/mL

Reference: patent US7196115B2, “Pharmaceutical composition containing brevifoliol for use in chemotherapeutic treatment of human beings, method therefor” (Council of Scientific and Industrial Research, priority 2002, dated 2007)
